Measured values from patent US20100160425A1, “ANTI-ALLERGIC AGENT AND BEVERAGE/FOOD, PREPARATION FOR EXTERNAL APPLICATION OR COSMETIC COMPRISING THE AGENT” (priority 2006, published 2010).

Tested on: mouse bone marrow-derived cultured mast cells (BMMC)
Assay: Inhibition of histamine release from IgE-sensitized, DNP-HSA-stimulated mouse mast cells
Format: cell-based
Details: for Ratio of Histamine Release Inhibiting Effect %: sample at 10 μg/ml, relative to distilled water control
Experimental: In order to determine the anti-allergic activity (type I allergy), inhibitory activity on the release of histamine from mouse mast cells was used as an indicator. The histamine release inhibitory effect was investigated by using mouse bone marrow-derived cultured mast cells (BMMC). The cells were cultured in a RPMI1640 medium supplemented with 10% heat inactivated FBS (fetal bovine serum), 3 ng/ml of interleukin-3 (IL-3), 5 mM […], and 50 μM 2-mercaptoethanol. The cells (1×10^7 cells/ml) were sensitized anti-DNP mouse IgE antibody overnight, then, on the following day, suspended in a Tyrode solution and incubated with the test samples for 10 minutes, degranulation was induced by adding DNP-HSA (antigen) (20 minutes), and the amount of histamine in the supernatant fluid was determined using liquid chromatography. An LC-10A (manufactured by Shimadzu Corporation) was used as the measuring instrument, and […] was used as the column. Isocratic analysis was conducted under the following conditions: flow rate of 0.5 ml/min; injection amount of 20 μl; temperature of the column oven of 37° C.; detector RF ([…], em. 430 nm). The anti-allergic activity was determined to be high when the relative value to distilled water, which was a control, was lower.

Molecule	anti-allergic activity (among the compounds of general formula (1), summary statement)	histamine release inhibiting effect relative to that of EGCG3″Me (beverages containing 2 μg/ml and 10 μg/ml, FIG. 2)	histamine release inhibiting effect when added to Yabukita hot-water extract (final additive concentration 0.1 to 50 μg/ml in Yabukita hot-water extract, FIG. 4)	Ratio of Histamine Release Inhibiting Effect % [%]
COc1cc(C(=O)O[C@@H]2Cc3c(O)cc(O)cc3O[C@@H]2c2ccc(O)c(O)c2)cc(O)c1O [ECG3″Me, epictechin-3-O-(3-O-methyl)gallate]	especially strong anti-allergic activity	approximately 1.5 times	can increase the anti-allergic activity more than EGCG3″Me	46.79
epigallocatechin-3-O-(3-O-methyl)gallate [EGCG3″Me, reference compound]				29.6
epigallocatechin-3-O-gallate [EGCG, reference compound]				7.63
